System: HSPA1A
Test: Stimulation of HSPA1A mRNA expression in normal human epidermal keratinocytes (RT-QPCR)
Assay type: cell-based
Conditions: 24 hours, mRNA by RT-QPCR relative to G3PDH, control (untreated cells) normalized to 100% expression
Protocol: Cell type: normal human keratinocytes (NHK) as an immersed monolayer, strongly post-confluent and at the third subculture.
Culture medium: low-calcium K-SFM (Invitrogen) supplemented with Epidermal Growth Factor (EGF Sigma) at 2.5 ng/ml, pituitary extract (EP Invitrogen) 2.5 μg/ml and gentamicin (Sigma) 25 μg/ml. For the treatments with the various compounds, this medium is replaced with K-SFM medium not supplemented with EGF and EP.
Treatment time: 24 hours with the various kosmotropes, and other molecules or extracts, and combinations thereof.
Test compounds: the taurine, D-trehalose, inositol and betaine (Sigma) are dissolved in the culture medium and tested at concentrations of 166 and 500 μg/ml, or, when this was not possible for reasons of solubility or cytotoxicity, at substantially lower concentrations.
The combination of these four compounds in proportions of 1/1/1/1 by weight is tested at the same concentrations.
Assays of the mRNA of HMSPA1A by RT-QPCR: at the end of the incubation period, the culture supernatants are removed and the cells, rinsed with PBS (Invitrogen), are covered with a solution of Tri-reagent (Sigma) and then frozen immediately at −80° C.
Extraction of the total RNA is performed according to the protocol of the Tri-reagent supplier (Sigma) and removal of the traces of DNA is performed with the DNA-free kit (Ambion). The reverse transcription reaction is performed using Oligo(dT) primers and the enzyme superscript II (Gibco).
The PCR (Polymerase Chain Reaction) reactions are performed using a Light Cycler (Roche Molecular Systems, Inc.) and according to the procedures recommended by the supplier. The pairs of primers used in this study allow amplification of the following fragments:
Homo sapiens heat shock protein HSP70 protein 1A (abbreviation HSPA1A; Gene bank NM 02045; fragment size 213 bp) and liver glyceraldehyde 3-phosphate dehydrogenase 1A (abbreviation G3PDH; Gene bank NM 02046; fragment size 269 bp) serving as the reference gene (caretaker gene) for determining the relative expression of the target HSPA1A.
The reaction medium (10 μl) is formed from the primers for the two target mRNAs (HSPA1A and G3PDH), 2.5 μl of tenfold-diluted cDNA, reaction mixture (Roche) containing the enzyme Taq DNA polymerase, SYBR Green I fluorochrome (which becomes incorporated into the double-stranded DNA during the elongation step), and MgCl2.
The incorporation of fluorescence into the amplified DNA is measured continuously in the course of the PCR cycles. For the same used marker, the later a sample leaves (high number of cycles), the lower the initial number of copies of mRNA.
Normal human keratinocyte cultures are treated for 24 hours with noncytotoxic doses (166 and 500 μg/ml) of each of the four osmolytes separately: taurine, D-trehalose, inositol and betaine. The transcriptional expression of HMSPA1A is measured by RT-PCR.
The control (untreated cells) is normalized to correspond to 100% expression.

C[N+](C)(C)CC(=O)O [betaine]
stimulation of expression of HSPA1A (166 μg/ml): 52%
stimulation of expression of HSPA1A (500 μg/ml): 85%

NCCS(=O)(=O)O [taurine]
stimulation of expression of HSPA1A (166 μg/ml): 171%
stimulation of expression of HSPA1A (500 μg/ml): 139%

NCCS(=O)O [Hypotaurine, hypotaurine]
stimulation of expression of HSPA1A (166 μg/ml): 379%

OC[C@H]1O[C@H](O[C@H]2O[C@H](CO)[C@@H](O)[C@H](O)[C@H]2O)[C@H](O)[C@@H](O)[C@@H]1O [D-trehalose]
stimulation of expression of HSPA1A (166 μg/ml): 142%
stimulation of expression of HSPA1A (500 μg/ml): 181%

O[C@H]1[C@H](O)[C@@H](O)[C@H](O)[C@@H](O)[C@H]1O [inositol]
stimulation of expression of HSPA1A (166 μg/ml): 90%
stimulation of expression of HSPA1A (500 μg/ml): 101%
